Experimental data taken from patent US10407712B2, “Methods, compositions and kits for high throughput kinase activity screening using mass spectrometry and stable isotopes” (President and Fellows of Harvard College, priority 2008, dated 2019).

Experiments:
PI3K and MAPK pathways = test: KAYAK profiling of cancer cell lines with or without gefitinib: PI3K and MAPK activity; format: cell-based, human
Method: MCF7 and MBA-MB231 cells were maintained in DMEM supplemented with 10% FBS. Sum159 cells were maintained in Ham's F12 media supplemented with 5% FBS, 5μg/ml hydrocortisone. MCF10A, MCF10A, ErbB2, MCF10A/IGFR, and MCF10A/H-Ras^G12V cells were generously provided by J. Brugge (Debnath et al. 2002 Cell 111: 29-40; Irie et al. 2005 J Cell Biol 171: 1023-1034; Reginato et al. 2003 Nat Cell Biol 5: 733-740) and were maintained in 50/50 DMEM/F12 media supplemented with 5% horse serum, 20 ng/ml EGF, 100 ng/ml cholera toxin, 10 μg/ml insulin, and 500 ng/ml hydrocortisone. Breast cancer cells were treated also with 1 μM of gefitinib (LC laboratories) for 24 h before lysis and KAYAK analysis. The mutation data was obtained from Wellcome Trust Sanger Institute Cancer Genome Project Web site (Hollestele et al. 2007 Mol Cancer Res 5:195-201).
(§1) Peptides were synthesized, purified and quantified as described in Yu et al. 2009 Proc Natl Acad Sci USA 106: 11606-11611, hereby incorporated by reference herein in its entirety. Each substrate peptide (250 pmol) was mixed to a final concentration of 5 μM in the 50 μL reaction mixture. Alternatively, reactions were performed using 6 μg cell lysate aliquotes mixed to a final volume of 20 μl. Cell lysate or other kinase source was added to the substrate mixture in 25 mM Tris-Cl, pH 7.5, containing 5 mM ATP, 7.5 mM MgCl2, 0.2 mM EGTA, 7.5 mM β-glycerophosphate, 0.1 mM Na3VO4, and 0.1 mM DTT. The reaction was incubated at 25° C. for 60 min and then terminated by the addition of 100 μl of 1% trifluoroacetic acid (TFA) containing a known amount of an internal standard (typically 20 pmol). Alternatively, the reaction was incubated at 20° C. for 45 min before termination with TFA.
In tumors, activating mutations are often found in core signaling pathways (McLendon et al. 2008 Nature 455: 1061-1068). […]. The cell lines were chosen to represent the highly heterogeneous nature of breast cancer.

HeLa cell lysates = test: KAYAK in vitro kinase assay, lysates of asynchronous, G1/S- or G2/M-arrested HeLa cells; format: biochemical, human; details: for G2/M: changed phosphorylation: G2/M phase compared to asynchronously growing HeLa cells; for G1/S: changed phosphorylation: G1/S phase compared to asynchronously growing HeLa cells
Method: For cell cycle examples, HeLa cells were synchronized by double thymidine block for G1/S-arrest and by 0.2 μg/ml nocodazole for G2/M-arrest as described (Dephoure et al. 2008 Proc Natl Acad Sci USA 105: 10762-10767). Synchronization was confirmed by flow cytometry.
(§2) For cell lysis, the media were removed, and cells were washed with ice-cold phosphate-buffered saline (PBS) and lysed with ice-cold lysis buffer (10 mM K2HPO4 pH 7.5, 1 mM EDTA, 10 mM MgCl2, 50 mM β-glycerophosphate, 5 mM EGTA, 0.5% Nonidet P-40, 0.1% Brij 35, 0.1% deoxycholic acid, 1mM sodium orthovanadate, 1mM phenylmethyl-sulfonyl fluoride, 5 μg/ml leupeptin and 5 μg/ml pepstatin A). Lysates were centrifuged at 10,000 rpm for 10 min to remove cell debris, and clear supernatant was used for immunoblotting and in vitro kinase assays. Protein concentration was determined by Bradford assay (Biorad, Hercules, Calif.).
as §1
(§3) Forty-five individual in vitro kinase reaction mixtures were combined and desalted by using Sep-Pak C18 cartridge (Waters, Milford, Mass.). Phosphopeptides were enriched by immobilized metal ion chromatography (IMAC) with 20 μl of beads (Phos-Select iron affinity gel; Sigma, St. Louis, Mo.) and subsequently desalted by using Empore C18 solid phase extraction disks (3M, St. Paul, Minn.) as described previously.
(§4) Quantitation of the target peptide-internal standard ratios was performed by first constructing the extracted ion chromatogram for the most abundant charge state for each peptide using a ±10 ppm window. Chromatograms were integrated using Qual/Quan browser (Xcalibur 2.0.5, Thermo Fisher, San Jose, Calif.). Since the phosphorylated peptides generated from the in vitro kinase reactions were chemically identical to the internal standards, they were assumed to have the same ionization efficiency. Therefore, the amount of each phosphorylated peptide was calculated by direct ratio to the internal standard level.
(§5) To test substrate suitability in a multiplexed assay, the phosphorylation activities were measured using […] of each substrate peptide, 6 μg lysate, and 5 mM ATP in a plate format. Reactions proceeded for 60 minutes followed by acidification and the addition of isotope-labeled reference peptides. After pooling 45 samples, phosphopeptide enrichment was followed by liquid-chromatography (LC) separation and on-line peptide detection by high-resolution mass spectrometry.
In order to examine target peptides with cell-cycle-dependent phosphorylation, kinase activities in asynchronously growing HeLa cells were profiled and the profiles were compared with those of cells synchronized in G1/S and G2/M phase using a double-thymidine block and nocodazole arrest, respectively (FIG. 3B).

HEK293 cell lysates = test: KAYAK in vitro kinase assay, individual reactions, lysates of starved, insulin- or EGF-stimulated HEK293 cells; format: biochemical, human; details: for E: changed phosphorylation in EGF stimulated condition: EGF-stimulated compared to starved HEK293 cells
Method: For stimulation of HEK293 cells or HeLa lines, cells were treated with insulin (100 nM; 10-30 min) EGF (50 ng/ml; 10 min) or phorbol 12-myristate 13-acetate (PMA; 50 or 100 ng/ml; 10 -30 min) at 37° C. for the indicated times after overnight serum-starvation.
as §2, §1, §3, §4, §5
The ability of the peptides to report specific changes in kinase activation after pathway stimulation was examined herein. Lysates from HEK293 cells were collected after insulin or EGF treatment and were compared to their activities in the serum-starved state using the KAYAK approach. Western blot analysis of lysates from cells in which the PI3K and MAPK pathways were activated, as indicated by elevated phospho-Akt and phospho-ERK1/2 levels, respectively, is shown in FIG. 1D. […]

recombinant RSK1 = target: T1, recombinant RSK1 (Homo sapiens, UniProt Q15418); test: In vitro peptide phosphorylation by purified RSK; format: biochemical
T1 construct: 90 kDa ribosomal S6 kinases 1 (RSK1, 1-735); purchased Cell Signaling Technology (Danvers, Mass.)
Description: Reaction mixture was supplemented with 0.1% BSA. Other conditions were the same as in FIG. 10A.
Purified human active kinases of Akt1 (full length), extracellular signal-regulated kinase 1 (ERK1, 1-379), mitogen-activated protein kinase kinase 1 (MEK1, 1-393), 90 kDa ribosomal S6 kinases 1 (RSK1, 1-735), cAMP-dependent protein kinase (PKA) catalytic subunit-α (PKA Cα, 1-351), protein kinase Cα (PKCα, full length), epidermal growth factor (EGF) receptor (EGFR, 672-1210), platelet-derived growth factor (PDGF) receptor α (PDGFRα, 550-1090), vascular endothelial growth factor (VEGF) receptor 1 (VEGFR1 784-1338), Src (full length), casein kinase 2 (CK2, full length), Aurora A (1-403), AMP-activated protein kinase α1β1γ1 (AMPK α1β1γ1, full length), glycogen synthase kinase-3α (GSK-3α, 1-483) and MAP/microtubule affinity-regulating kinase 1 (MARK 1, full length) were obtained from Cell Signaling Technology (Danvers, Mass.). Cdc2/cyclin B1 (full length) and insulin-like growth factor (IGF)-I receptor (IGFIR, 959-1367) were obtained from Upstate (Temecula, Calif.).
as §1, with “Each substrate peptide (250 pmol) was mixed to a final concentration of 5 μM in the 50 μL reaction mixture.” left out
It was observed that basal phosphorylation of these peptides was not affected by knockdown and likely was the result of remaining RSK isoforms or other basophilic kinases (FIG. 5C).

T1 sequence (Q15418 whole entry): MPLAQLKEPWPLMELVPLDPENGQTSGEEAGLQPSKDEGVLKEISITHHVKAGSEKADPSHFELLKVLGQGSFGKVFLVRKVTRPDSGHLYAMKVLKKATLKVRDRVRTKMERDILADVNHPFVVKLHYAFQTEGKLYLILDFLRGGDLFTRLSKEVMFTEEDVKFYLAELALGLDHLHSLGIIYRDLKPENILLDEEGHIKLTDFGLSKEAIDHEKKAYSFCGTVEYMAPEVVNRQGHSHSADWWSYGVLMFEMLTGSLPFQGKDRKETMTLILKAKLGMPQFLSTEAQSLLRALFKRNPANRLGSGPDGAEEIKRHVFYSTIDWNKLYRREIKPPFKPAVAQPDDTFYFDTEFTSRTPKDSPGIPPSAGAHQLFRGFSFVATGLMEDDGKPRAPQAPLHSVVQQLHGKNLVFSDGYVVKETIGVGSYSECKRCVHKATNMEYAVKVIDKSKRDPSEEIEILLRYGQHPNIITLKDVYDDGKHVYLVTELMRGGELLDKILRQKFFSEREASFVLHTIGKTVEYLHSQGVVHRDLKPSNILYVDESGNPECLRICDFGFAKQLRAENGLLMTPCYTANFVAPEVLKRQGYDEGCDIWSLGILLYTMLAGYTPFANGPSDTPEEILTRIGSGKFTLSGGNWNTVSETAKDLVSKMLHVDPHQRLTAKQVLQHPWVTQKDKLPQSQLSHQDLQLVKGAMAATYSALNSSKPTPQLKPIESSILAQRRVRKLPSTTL

Row | Compound | G2/M: changed phosphorylation (HeLa cell lysates) | E: changed phosphorylation in EGF stimulated condition (HEK293 cell lysates) | G1/S: changed phosphorylation (HeLa cell lysates) | also measured
1 | COc1cc2ncnc(Nc3ccc(F)c(Cl)c3)c2cc1OCCCN1CCOCC1 [gefitinib] | – | – | – | activation of MAPK after treatment (PI3K and MAPK pathways; HeLa cells, 1 μM): not to be affected; activity in PI3K and MAPK pathway after treatment (PI3K and MAPK pathways; MCF7, 1 μM, 24 h): decreased activity; MAPK activity after treatment (PI3K and MAPK pathways; MCF10A cells overexpressing RasV12, 1 μM, 24 h): gefitinib-resistance; PI3K and MAPK activity after treatment (PI3K and MAPK pathways; MCF10A/ErbB2, 1 μM, 24 h): strongly inhibited; PI3K and MAPK activity after treatment (PI3K and MAPK pathways; MCF10A/IGFR, 1 μM, 24 h): strongly inhibited; MAPK activity after treatment (PI3K and MAPK pathways; MDA-MB231 cells, 1 μM, 24 h): completely refractory; MAPK activity after treatment (PI3K and MAPK pathways; Sum159 cells, 1 μM, 24 h): some sensitivity; PI3K and MAPK activity after treatment (PI3K and MAPK pathways; normal MCF10A cells, 1 μM, 24 h): strongly inhibited
2 | FKNIVTPRTPPFR (The sequence was designed and synthesized) [D10] | ++ (A change of more than +4 and −4 fold is indicated by “++” and “−−”, respectively.) | – | – | –
3 | IPINGSPRTPPFR (The sequence was designed and synthesized) [B4] | ++ (A change of more than +4 and −4 fold is indicated by “++” and “−−”, respectively.) | + (A change of more +2 fold and −2 fold is indicated by “+” and “−”, respectively.) | – | –
4 | IPTGTTPQRKPFR (The sequence was designed and synthesized) [C2] | ++ (A change of more than +4 and −4 fold is indicated by “++” and “−−”, respectively.) | – | – | increase in phosphorylation in G2/M (HeLa cell lysates; G2/M (nocodazole-arrested) HeLa lysate vs asynchronously growing cells): 19 fold
5 | KKKRFSFKKSPFR (The sequence was designed and synthesized) [G10] | – | – | – | conversion of the substrate (HEK293 cell lysates; serum-starved HEK293 lysate, 100 μM peptide, 6 μg lysate, 60 min, highest activity peptide): 18%
6 | LKLSPSPSSRPFR (The sequence was designed and synthesized) [B11] | ++ (A change of more than +4 and −4 fold is indicated by “++” and “−−”, respectively.) | – | + (A change of more +2 fold and −2 fold is indicated by “+” and “−”, respectively.) | –
7 | NKRRGSVPILPFR (The sequence was designed and synthesized) [C11] | – | + (A change of more +2 fold and −2 fold is indicated by “+” and “−”, respectively.) | – | phosphorylation by recombinant RSK1 in vitro (recombinant RSK1): robustly phosphorylate
8 | NLLPLSPEEFPFR (The sequence was designed and synthesized) [D7] | −− (A change of more than +4 and −4 fold is indicated by “++” and “−−”, respectively.) | – | −− (A change of more than +4 and −4 fold is indicated by “++” and “−−”, respectively.) | –
9 | NQDPVSPSLVPFR (The sequence was designed and synthesized) [B5] | − (A change of more +2 fold and −2 fold is indicated by “+” and “−”, respectively.) | – | −− (A change of more than +4 and −4 fold is indicated by “++” and “−−”, respectively.) | –
10 | PKRKVSSAEGPFR (The sequence was designed and synthesized) [B6] | − (A change of more +2 fold and −2 fold is indicated by “+” and “−”, respectively.) | + (A change of more +2 fold and −2 fold is indicated by “+” and “−”, respectively.) | – | phosphorylation by recombinant RSK1 in vitro (recombinant RSK1): robustly phosphorylate; increase in phosphorylation after EGF (HEK293 cell lysates; EGF-stimulated vs serum-starved HEK293 lysate): 3 fold
11 | PSTNSSPVLKPFR (The sequence was designed and synthesized) [A12] | + (A change of more +2 fold and −2 fold is indicated by “+” and “−”, respectively.) | – | – | –
12 | SKRRNSEFEIPFR (The sequence was designed and synthesized) [G5] | – | + (A change of more +2 fold and −2 fold is indicated by “+” and “−”, respectively.) | – | phosphorylation by recombinant RSK1 in vitro (recombinant RSK1): robustly phosphorylate
13 | VKRQSSTPSAPFR (The sequence was designed and synthesized) [B7] | −− (A change of more than +4 and −4 fold is indicated by “++” and “−−”, respectively.) | – | −− (A change of more than +4 and −4 fold is indicated by “++” and “−−”, respectively.) | –
